System: CFLP female mice
Experiment: Reversal of Adrenaline-Exacerbated Glucose Intolerance in Mice
Assay type: in vivo
Settings: oral gavage, glucose 1 g/kg and adrenaline 300 μg/kg s.c., 0-120 minutes, versus water control, 24 h fasted mice
Protocol: (A) Reversal of Adrenaline-Exacerbated Glucose Intolerance in Mice
CFLP female mice of about 25 g were fasted for 24 hours prior to receiving water (10 ml/kg) or compounds by oral gavage. Thirty minutes later, glucose (1 g/kg) and adrenaline (300 μg/kg) were injected subcutaneously. Blood samples for glucose analysis were taken serially from the tail of each mouse at 0, 30, 60, 90 and 120 minutes after dosing glucose and the results are expressed below as the percentage reduction in the area under the blood glucose curve; the compound treated groups being compared to the water dosed control group. Six mice were used in each treatment group.

SMILES	% Reduction in area under Blood Glucose Curve (10 μmol/kg) [%]	% Reduction in area under Blood Glucose Curve (20 μmol/kg) [%]
c1ccc2c(c1)CN(CC1=NCCN1)C2 [Example 1, 2-[2H-(1,3-Dihydroisoindole)methyl]-4,5-dihydroimidazole]	40	
Clc1cccc2c1CN(CC1=NCCN1)C2 [Example 2, 2-[2H-(4-Chloro-1,3-dihydroisoindole)methyl]-4,5-dihydroimidazole]	24	
Clc1ccc2c(c1)CN(CC1=NCCN1)C2 [Example 3, 2-[2H-(5-Chloro-1,3-dihydroisoindole)methyl]-4,5-dihydroimidazole]		44

From patent US4959374A, “Novel compounds” (Beecham Group P.L.C., priority 1989, dated 1990)
